The test system of the assay is KCNQ channels. Put plainly: Thallium flux assay for KCNQ channel openers. It is filed as cell-based. The note with it: HEK-293 cells stably transfected with a KCNQ family member; for Min conc. response: minimal active concentration: lowest concentration giving signal >= 4 SD of negative controls; for EC50: thallium flux, 10 point concentration series. Here is the method: Thallium Flux Assay for KCNQ Channel Openers.
The thallium assay is a modification of that published by Weaver and is referenced in its entirety (Weaver, C. D. WO 02/31508, 2002).
Approximately 20,000 cells/well of an HEK-293 cell line stably transfected with one of the members of the KCNQ family were plated into clear-bottom, black-walled, poly-D-lysine coated, 384 well assay plates in 20 μl/well of low chloride plating medium. Low chloride plating medium was composed of the following: sodium gluconate, 109 mM; potassium gluconate, 5.4 mM; hemi-calcium gluconate, 3.6 mM; magnesium sulfate, 0.8 mM; sodium bicarbonate, 26.2 mM; sodium phosphate monobasic, 1.2 mM; glutamine, 2 mM; glucose, 5 mM; 4-(2-hydroxyethyl)-1-piperazineethanesulfonic acid (HEPES) (pH 7.3) 10 mM, MEM vitamin solution (10× concentration of vitamins, Gibco/LifeTechnologies 11120-052) and MEM amino acid solution (1× concentration of amino acids, Gibco/LifeTechnologies 11130-051).
Following overnight incubation in a 5% CO2 incubator at 37° C., the cells in the plates were loaded with 20 μl/well of a dye loading solution containing the commercially available thallium-sensitive fluorescent dye BTC-AM, the acetomethoxy ester of BTC (see U.S. Pat. No. 5,501,980) (2 μM) and pluronic acid F-127 (Molecular Probes P 6867) (0.02% w/v) in chloride free assay buffer. Chloride free assay buffer was composed of the following: sodium gluconate, 140 mM; potassium gluconate, 2.5 mM; hemi-calcium gluconate, 6 mM; hemi-magnesium gluconate, 2 mM; glucose, 5 mM; HEPES (pH 7.3), 10 mM.
Following incubation in the dye loading solution for from 45-90 min at room temperature, the dye loading solution was removed by aspiration and replaced with 40 μl/well of chloride free assay buffer.
Prior to addition to cell plates, test compound and standard compounds were dissolved in DMSO to 3 mM concentration. Compounds were then diluted from the 3 mM stock to 100-fold over the final assay concentration in DMSO. Finally, compounds in DMSO were diluted from 100-fold over the final assay concentration to 5-fold over the final assay concentration in chloride free assay buffer.
Ten μl/well of compounds at 5-fold over the final assay concentration were then added to the cell plates. This represents a 1:5 dilution, yielding the final test concentration. The wells used for test compounds were A1-P20. Wells A21-P22 contained a standard opener and a maximally efficacious concentration (positive control). Wells A23-P24 contained chloride free assay buffer containing 1% DMSO (negative control).
Following addition of test compounds, the plates were loaded onto the Molecular Devices FLIPR. The 488 nm line of the argon laser was used to excite the BTC and the emission filter was a 540(+/−30) nm. Images were collected at 1 Hz. Ten seconds of baseline were collected and then the FLIPR was used to add 13 μl/well of a stimulus buffer composed of 7.5 mM Tl2SO4 in chloride free assay buffer. Images were collected for an additional 60 seconds.
For data analysis, the amplitude of the average of the negative controls was subtracted from all wells. The amplitudes of the test compounds were then compared to the value of four standard deviations of the negative control wells. The lowest concentration of a test compound sufficient to generate a signal amplitude greater than or equal to four standard deviations from the amplitude of the negative controls was defined as the minimal active concentration.
For generating EC50 values, compounds were serially diluted in 1:3 volume increments to produce a 10 point concentration series. EC50 values were calculated by fitting the resulting amplitudes to a single-site logistic equation. EC50 was defined as the concentration of test compound required to yield 50% of the maximal response. Maximal response (Maximal opening) was the largest signal amplitude divided by the negative control amplitude generated by any concentration of a test compound. […]

SMILES strings stand for the structures.

`CCC(CC)NCCc1nc(C(F)(F)F)c(C(=O)NC(C)c2cccc(C(F)(F)F)c2)s1` (centres unmarked) [Example 34, 2-[2-(3-pentylamino)ethyl]-N-[1-[3-(trifluoromethyl)phenyl]ethyl]-4-(trifluoromethyl)-5-thiazolecarboxamide] showed a Min conc. response of 3 µM and an EC50 of 1000 to 20000 nM.
`C[C@H](NC(=O)c1sc(CCNCc2ccco2)nc1C(F)(F)F)c1cccc(-c2cccnc2)c1` [Example 35, 2-[2-[(2-furanylmethyl)amino]ethyl]-N-[1-[3-(3-pyridinyl)phenyl]ethyl]-4-(trifluoromethyl)-5-thiazolecarboxamide] came in with a Min conc. response of 10 µM and an EC50 of 1000 to 20000 nM.
The like results for `CC(NC(=O)c1sc(CCNC2CCCC2)nc1C(F)(F)F)c1cccc(OC(F)(F)F)c1` (centres unmarked) [Example 36, 2-[2-(cyclopentylamino)ethyl]-N-[1-[3-(trifluoromethoxy)phenyl]ethyl]-4-(trifluoromethyl)-5-thiazolecarboxamide] were, in that order, 30 µM and 1000 to 20000 nM.
Turning to `C[C@H](NC(=O)c1sc(CCNC2CCCC2)nc1C(F)(F)F)c1cccc(-c2cccnc2)c1` [Example 37], the Min conc. response turned out to be 30 µM and the EC50 lay in the range of 1000 to 20000 nM.
In turn, `COCCN(CCOC)CCc1nc(C(F)(F)F)c(C(=O)NC(C)c2cccc(OC(F)(F)F)c2)s1` (centres unmarked) [Example 38] registered a Min conc. response of 3 µM and an EC50 of 1000 to 20000 nM.
As to `COCCN(CCOC)CCc1nc(C(F)(F)F)c(C(=O)NC(C)c2cccc(C(F)(F)F)c2)s1` (centres unmarked) [Example 39], the Min conc. response was 3 µM and the EC50 was 1000 to 20000 nM.
`COCCN(CCOC)CCc1nc(C(F)(F)F)c(C(=O)N[C@@H](C)c2cccc(-c3cccnc3)c2)s1` [Example 40]: the Min conc. response was 30 µM and the EC50 is 50 to 1000 nM.
`CC(NC(=O)c1sc(C(O)CN2CCCCC2)nc1C(F)(F)F)c1cccc(OC(F)(F)F)c1` (centres unmarked) [Example 41, 2-[1-hydroxy-2-(1-piperidinyl)ethyl]-N-[1-[3-(trifluoromethoxy)phenyl]ethyl]-4-(trifluoromethyl)-5-thiazolecarboxamide] returned a Min conc. response of 30 µM and an EC50 of 1000 to 20000 nM.
Compound `CC(NC(=O)c1sc(C(O)CN2CCCC2)nc1C(F)(F)F)c1cccc(C(F)(F)F)c1` (centres unmarked) [Example 42, 2-[1-hydroxy-2-(1-pyrrolidinyl)ethyl]-N-[1-[3-(trifluoromethyl)phenyl]ethyl]-4-(trifluoromethyl)-5-thiazolecarboxamide] yielded a Min conc. response of 3 µM and an EC50 of 50 to 1000 nM.
On to `CC(NC(=O)c1sc(C(O)CN(C)Cc2ccco2)nc1C(F)(F)F)c1cccc(C(F)(F)F)c1` (centres unmarked) [Example 43, 2-[1-hydroxy-[2-(2-furanylmethyl)methylamino]ethyl]-N-[1-[3-(trifluoromethyl)phenyl]ethyl]-4-(trifluoromethyl)-5-thiazolecarboxamide], for which the Min conc. response is 3 µM and the EC50 is 50 to 1000 nM.
Consider `CCCN(CC1CC1)CC(O)c1nc(C(F)(F)F)c(C(=O)NC(C)c2cccc(OC(F)(F)F)c2)s1` (centres unmarked) [Example 44], for which the Min conc. response was 3 µM and the EC50 was 50 to 1000 nM.
`C[C@H](NC(=O)c1sc(CCN2CCOCC2)nc1C(F)(F)F)c1cccc(N2CCOCC2)c1` [Example 45, 2-[2-(4-morpholinyl)ethyl]-N-[(1S)-1-[3-(4-morpholinyl)phenyl]ethyl]-4-(trifluoromethyl)-5-thiazolecarboxamide]: the Min conc. response was found to be 3 µM.
The same measure, in the same setting: with `CC(NC(=O)c1sc(CCN2CCSCC2)nc1C(F)(F)F)c1cccc(N(C)C)c1` (centres unmarked) [Example 46, N-[1-[3-(dimethylamino)phenyl]ethyl]-2-[2-(4-thiomorpholinyl)ethyl]-4-(trifluoromethyl)-5-thiazolecarboxamide] the figure was 3 µM; with `CC(NC(=O)c1sc(CCN(C)CCN(C)C)nc1C(F)(F)F)c1cccc(N(C)C)c1` (centres unmarked) [Example 47, 2-[2-[[2-(dimethylamino)ethyl]methylamino]ethyl]-N-[1-[3-(dimethylamino)phenyl]ethyl]-4-(trifluoromethyl)-5-thiazolecarboxamide], 0.3 µM.
As for `C[C@H](NC(=O)c1sc(CCN2CCN(C)CC2)nc1C(F)(F)F)c1cccc(N2CCOCC2)c1` [Example 48, 2-[2-(4-methyl-1-piperazinyl)ethyl]-N-[(1S)-1-[3-(4-morpholinyl)phenyl]ethyl]-4-(trifluoromethyl)-5-thiazolecarboxamide], the Min conc. response amounted to 3 µM.
Take `CCN(CC)CC(O)c1nc(C(F)(F)F)c(C(=O)N[C@@H](C)c2cccc(N3CCOCC3)c2)s1` (stereo partly drawn) [Example 49, 2-[2-(diethylamino)-1-hydroxyethyl]-N-[(1S)-1-[3-(4-morpholinyl)phenyl]ethyl]-4-(trifluoromethyl)-5-thiazolecarboxamide]: the Min conc. response is 30 µM.
As for `CCN(CC)CC(O)c1nc(C(F)(F)F)c(C(=O)N[C@@H](C)c2cccc(-c3cccnc3)c2)s1` (stereo partly drawn) [Example 50, 2-[2-(diethylamino)-1-hydroxyethyl]-N-[(1S)-1-[3-(3-pyridinyl)phenyl]ethyl]-4-(trifluoromethyl)-5-thiazolecarboxamide], the Min conc. response is 0.3 µM.
`CC(NC(=O)c1sc(C(O)CN2CCOCC2)nc1C(F)(F)F)c1cccc(OC(F)(F)F)c1` (centres unmarked) [Example 51, 2-[1-hydroxy-2-(4-morpholinyl)ethyl]-N-[1-[3-(trifluoromethoxy)phenyl]ethyl]-4-(trifluoromethyl)-5-thiazolecarboxamide] gave a Min conc. response of 0.3 µM.
In the case of `CC(NC(=O)c1sc(C(O)CN2CCOCC2)nc1C(F)(F)F)c1cccc(C(F)(F)F)c1` (centres unmarked) [Example 52, 2-[1-hydroxy-2-(4-morpholinyl)ethyl]-4-(trifluoromethyl)-N-[1-[3-(trifluoromethyl)phenyl]ethyl]-5-thiazolecarboxamide], the Min conc. response was 10 µM.
Same read-out and setting: then `CC(NC(=O)c1sc(C(O)CN2CCN(C)CC2)nc1C(F)(F)F)c1cccc(C(F)(F)F)c1` (centres unmarked) [Example 53, 2-[1-hydroxy-2-(4-methyl-1-piperazinyl)ethyl]-4-(trifluoromethyl)-N-[1-[3-(trifluoromethyl)phenyl]ethyl]-5-thiazolecarboxamide], with 30 µM.
In the case of `C[C@H](NC(=O)c1sc(C(O)CN2CCN(C)CC2)nc1C(F)(F)F)c1cccc(N2CCOCC2)c1` (stereo partly drawn) [Example 54, 2-[1-hydroxy-2-(4-methyl-1-piperazinyl)ethyl]-N-[(1S)-1-[3-(4-morpholinyl)phenyl]ethyl]-4-(trifluoromethyl)-5-thiazolecarboxamide], the Min conc. response came out at 0.3 µM.
On to `C[C@H](NC(=O)c1sc(C(O)CN2CCN(C)CC2)nc1C(F)(F)F)c1cccc(-c2cccnc2)c1` (stereo partly drawn) [Example 55, 2-[1-hydroxy-2-(4-methyl-1-piperazinyl)ethyl]-N-[(1S)-1-[3-(3-pyridinyl)phenyl]ethyl]-4-(trifluoromethyl)-5-thiazolecarboxamide], for which the Min conc. response amounted to 0.3 µM.
Consider `CC(NC(=O)c1sc(C(O)CN2CCCCC2)nc1C(F)(F)F)c1cccc(C(F)(F)F)c1` (centres unmarked) [Example 56, 2-[1-hydroxy-2-(1-piperidinyl)ethyl]-4-(trifluoromethyl)-N-[1-[3-(trifluoromethyl)phenyl]ethyl]-5-thiazolecarboxamide], for which the Min conc. response was 30 µM.
In turn, `CC(NC(=O)c1sc(C(O)CN2CCCC2)nc1C(F)(F)F)c1cccc(OC(F)(F)F)c1` (centres unmarked) [Example 57, 2-[1-hydroxy-2-(1-pyrrolidinyl)ethyl]-N-[1-[3-(trifluoromethoxy)phenyl]ethyl]-4-(trifluoromethyl)-5-thiazolecarboxamide] registered a Min conc. response of 3 µM.

Broadly, the EC50 is the midpoint of the concentration-response curve.

For the origin of these results see patent US6933308B2 (Bristol-Myers Squibb Company, priority 2002, dated 2005).
